Laboratory results reported in patent US5073641A, “Prodrug derivatives of carboxylic acid drugs” (priority 1986, dated 1991).
In brackets after ≈: the same amount, converted by molar mass. Structures can show the parent of a compound that is named as a salt.

Assays:
[1] = Hydrolysis of ester prodrugs in human plasma solutions (HPLC); conditions: for half-life: pH 7.4; for kinetics (order) of hydrolysis in human plasma: 80% human plasma at 37° C., initial concentration about 10^-4 M
Description: Solutions of various derivatives of this invention in aqueous buffer solutions or 50-80% human plasma solutions (pH 7.4) were kept at 37° C. The initial concentration of the derivatives was in the range 3×10^-4 -10^-5 M. At various times an aliquot of the solutions was withdrawn and analyzed by HPLC for remaining derivative as well as for parent acid. For the plasma solutions the aliquot withdrawn was deproteinized with methanol, ethanol or acetonitrile and after centrifugation, the clear supernatant was injected on HPLC.
An HPLC method was used for the determination of the ester derivatives and their parent acids. In this method a reversed-phase LiChrosorb RP-8 column (250×4 mm) was eluted at ambient temperature with mixtures of methanol and 0.01M acetate buffer pH 5.0, methanol and 0.01M phosphate buffer pH 4.5 or methanol and 0.02M phosphate buffer pH 3.5. the composition of the eluant was adjusted for each compound in order to provide an appropriate retention time and separation of ester and the corresponding acid. The flow-rate was 0.6-1.6 ml/min and the column effluent was monitored spectrophotometrically at an appropriate wavelength. Quantitation of the compounds was done by measurement of the peak heights in relation to those of standards chromatographed under the same conditions.

[2] = Solubility in water or aqueous solutions; conditions: for solubility: water
[3] = Stability in acidic media (0.01M HCl); assay type: physicochemical; conditions: 37° C., read-out: hydrolysis in 0.01M HCl
[4] = Hydrolysis in aqueous buffer solution pH 7.4; assay type: physicochemical; conditions: pH 7.4, 37° C., read-out: half-life of hydrolysis in pure buffer solution
[5] = not given; remark: listed apart in the source
[6] = cited from earlier work
[7] = cited from earlier work; remark: listed apart in the source
[8] = Oral bioavailability study in rabbits (plasma concentrations); assay type: in vivo

SMILES: CCN(CC)C(=O)COC(=O)C(C)c1ccc(-c2ccccc2)c(F)c1 (centres unmarked) [Example 59]
- half-life ([1]; plasma): 4.7 min

SMILES: CCN(CC)C(=O)COC(=O)c1ccccc1Nc1cccc(Cl)c1C [Example 66]
- half-life ([1]; 80% plasma): 5 min
- half-life ([1]; plasma): 5 min

SMILES: CN(C)CC(=O)OCCN(C)C(=O)COC(=O)c1ccccc1 [R1=CH3, R2=CH2CH2OOCCH2N(CH3)2, n=1]
- half-life ([1]; 50% plasma): 0.08 min
- solubility [2]: > 200000 µg/mL

SMILES: CCN(CC)C(=O)COC(=O)c1ccccc1 [Example 10, 2-(benzoyloxy)-N,N-diethylacetamide]
- degraded at 3 h [3]: < 1%
- half-life [4]: > 41.7 days
- S, solubility in water: 2000 µg/mL

SMILES: CCN(CC)C(=O)COC(=O)Cc1ccc(C(=O)c2ccc(C)cc2)n1C [Tolmetin (R1=C2H5, R2=C2H5)]
- half-life ([1]; 80% plasma): 13.4 min
- half-life ([1]; plasma): 13.4 min

SMILES: CC(C)Cc1ccc(C(C)C(=O)OCC(=O)N(C)C)cc1 (centres unmarked) [Example 54]
- half-life ([1]; plasma): 8.6 min

SMILES: COC(=O)CCC(=O)c1ccc(-c2ccccc2)cc1 [Fenbufen methyl ester, reference compound]
- half-life ([1]; 80% plasma): 282 min

SMILES: O=C(OCC(=O)N1CCCCC1)c1ccccc1
- log P (partition coefficient between octanol and water) [5]: 1.95
- half-life ([1]; 50% plasma): 2.5 min
- solubility [2]: 780 µg/mL (≈ 3.15 mM)

SMILES: CN(CC(N)=O)C(=O)COC(=O)c1ccccc1O [Example 37, 2-[2-HYDROXYBENZOYLOXY]-(N-METHYL-N-CARBAMOYLMETHYL)-ACETAMIDE]
- half-life ([1]; plasma): 0.33 min

SMILES: CC(C)Cc1ccc(C(C)C(=O)OCC(=O)N(C)CC(N)=O)cc1 (stereo not drawn) [Example 41, 2-[α-METHYL-4-(2-METHYLPROPYL)BENZENEACETYLOXY]-(N-METHYL-N-CARBAMOYLMETHYL)ACETAMIDE]
- half-life ([1]; plasma): 9.6 min

SMILES: CN(C)C(=O)COC(=O)c1ccccc1O [Example 79]
- half-life ([1]; plasma): 0.08 min

SMILES: O=C(OCC(=O)N1CCCC1=O)c1ccccc1
- log P (partition coefficient between octanol and water) [5]: 1.83
- half-life ([1]; 50% plasma): 18 min
- solubility [2]: 490 µg/mL (≈ 1.98 mM)

SMILES: O=C(OCC(=O)N1CCCCCC1)c1ccccc1
- half-life ([1]; 50% plasma): 1 min
- solubility [2]: 750 µg/mL (≈ 2.87 mM)

SMILES: COCCN(CCOC)C(=O)COC(=O)c1ccccc1 [Example 23b]
- half-life ([1]; 50% plasma): 0.25 min

SMILES: COC(=O)c1ccccc1Nc1cccc(Cl)c1C [Tolfenamic acid methyl ester, reference compound]
- half-life ([1]; 80% plasma): 6000 min

SMILES: O=C(OCC(=O)N1CCOCC1)c1ccccc1
- log P (partition coefficient between octanol and water) [5]: 0.90
- half-life ([1]; 50% plasma): 4.9 min
- solubility [2]: 4200 µg/mL (≈ 16.8 mM)

SMILES: CCN(CC)C(=O)COC(=O)c1cc(-c2ccc(F)cc2F)ccc1O [Example 70]
- half-life ([1]; plasma): 79 min

SMILES: CC(C(=O)OCC(=O)N(C)C)c1cccc(C(=O)c2ccccc2)c1 (centres unmarked) [Example 55]
- half-life ([1]; plasma): 1.1 min

SMILES: CCOC(=O)[C@H](C)C[C@@H](C)C(=O)N1c2ccccc2C[C@H]1C(=O)O [Pentopril]
- part of oral dose deesterified in vivo to the active parent acid ([6]; oral, Rakhit & Tipnis, 1985): less than 50%
- hydrolysis by plasma enzymes / stability in plasma [7]: highly stable in human plasma

SMILES: CCN(C)C(=O)COC(=O)c1ccccc1 [Example 9]
- half-life ([1]; 50% plasma): 0.1 min

SMILES: COc1ccc2c(c1)c(CC(=O)OCC(=O)N(CCO)CCO)c(C)n2C(=O)c1ccc(Cl)cc1 [Example 64]
- half-life ([1]; plasma): 88 min

SMILES: CC(C)Cc1ccc(C(C)C(=O)OCC(=O)N(C)CC(=O)NCN2CCOCC2)cc1 (stereo not drawn) [Example 51, 2-[α-METHYL-4-(2-METHYLPROPYL)BENZENEACETYLOXY]-(N-METHYL-N-(N'-MORPHOLINOMETHYLCARBAMOYL)METHYL)ACETAMIDE HYDROCHLORIDE]
- half-life ([1]; plasma): 10.8 min

SMILES: O=C(OCC(=O)N(CCO)CCO)c1ccccc1 [Example 17, 2-(benzoyloxy)-N-N-(di-β-hydroxyethyl)acetamide]
- S, solubility in water: 720000 µg/mL
- solubility [2]: > 700000 µg/mL

SMILES: COC(=O)[C@H]1CC[C@H](CN)CC1 [Tranexamic acid methyl ester, reference compound]
- half-life ([1]; 80% plasma): > 180 min

SMILES: Cc1c(Cl)cccc1Nc1ccccc1C(=O)OCC(=O)N(C)C [Example 65]
- half-life ([1]; plasma): 2.8 min

SMILES: CN(C)C(=O)CCOC(=O)c1ccccc1 [Example 21]
- half-life ([1]; 50% plasma): 5.6 min

SMILES: O=C(OCC(=O)N1CCC1)c1ccccc1
- half-life ([1]; 50% plasma): 0.83 min
- solubility [2]: 5400 µg/mL (≈ 24.6 mM)

SMILES: COc1ccc2cc([C@H](C)C(=O)OCC(=O)N(C)C)ccc2c1 [Example 52]
- half-life ([1]; plasma): 1.5 min

SMILES: CCN(CC)C(=O)COC(=O)C(C)c1cccc(C(=O)c2ccccc2)c1 (centres unmarked) [Example 56]
- half-life ([1]; 80% plasma): 0.5 min
- half-life ([1]; plasma): 0.5 min

SMILES: CN1CCN(C(=O)COC(=O)c2ccccc2O)CC1 [Salicylic acid]
- half-life ([1]; plasma): 22 min

SMILES: COC(=O)Cc1c(C)n(C(=O)c2ccc(Cl)cc2)c2ccc(OC)cc12 [Indomethacin methyl ester, reference compound]
- half-life ([1]; 80% plasma): 9000 min

SMILES: CC(C)CN(CC(C)C)C(=O)COC(=O)c1ccccc1 [Example 15]
- half-life ([1]; 50% plasma): < 1.5 min
- solubility [2]: 81 µg/mL (≈ 0.278 mM)

SMILES: CC(C(=O)OCC(=O)N(C)C)c1ccc(-c2ccccc2)c(F)c1 (centres unmarked) [Example 58]
- half-life ([1]; plasma): 10.8 min

SMILES: C=CCN(CC=C)C(=O)COC(=O)c1ccccc1 [Example 13]
- log P (partition coefficient between octanol and water) [5]: 2.34
- half-life ([1]; 50% plasma): 0.08 min
- S, solubility in water: 710 µg/mL

SMILES: COC(=O)[C@@H]1CCCN1C(=O)COC(=O)c1ccccc1
- half-life ([1]; 50% plasma): 1.9 min

SMILES: COC(=O)c1ccc(O)cc1 [4-Hydroxybenzoic acid methyl ester, reference compound]
- half-life ([1]; 80% plasma): > 3000 min

SMILES: CCOC(=O)[C@H](CCc1ccccc1)N[C@@H](C)C(=O)N1CCC[C@H]1C(=O)O [Enalapril]
- availability of the active parent acid ([6]; Todd & Heel, 1986): incomplete availability of the active parent acid
- hydrolysis by plasma enzymes / stability in plasma [7]: Plasma enzymes do not hydrolyze the ester

SMILES: CCN(CC)C(=O)COC(=O)CC1=C(C)/C(=C/c2ccc([S+](C)[O-])cc2)c2ccc(F)cc21 (centres unmarked) [Example 73]
- half-life ([1]; plasma): 26 min

SMILES: CCN(CCO)C(=O)COC(=O)c1ccccc1Nc1cccc(Cl)c1C [Example 67]
- half-life ([1]; plasma): 3 min

SMILES: O=C(OCC(=O)N1CCC(O)CC1)c1ccccc1
- half-life ([1]; 50% plasma): 5.8 min

SMILES: O=C(OCC(=O)N1CCCC1)c1ccccc1
- half-life ([1]; 50% plasma): 5.7 min
- solubility [2]: 6300 µg/mL (≈ 27 mM)

SMILES: CN(C)CCN(C)C(=O)COC(=O)c1ccccc1 [Example 23a]
- t1/2, half-life of hydrolysis in 50% human plasma ([1]; 50% human plasma (pH 7.4) at 37° C.): 0.12 min
- solubility [2]: > 100000 µg/mL

SMILES: COc1ccc2c(c1)c(CC(=O)OCC(=O)N(C)CCO)c(C)n2C(=O)c1ccc(Cl)cc1 [Example 63]
- half-life ([1]; plasma): 140 min

SMILES: CN(CC(N)=O)C(=O)COC(=O)Cc1ccc(-c2ccccc2)cc1 [Example 57]
- half-life ([1]; plasma): 2.1 min

SMILES: CC1CCCC(C)N1C(=O)COC(=O)c1ccccc1 (centres unmarked)
- half-life ([1]; 50% plasma): 0.4 min
- solubility [2]: 150 µg/mL (≈ 0.545 mM)

SMILES: CN1CCN(C(=O)COC(=O)c2ccccc2)CC1
- half-life ([1]; 50% plasma): 12.7 min
- solubility [2]: > 100000 µg/mL

SMILES: CC(C(=O)OCC(=O)N(C)CC(N)=O)c1cccc(C(=O)c2ccccc2)c1 (centres unmarked) [Ketoprofen (R1=CH3, R2=CH2CONH2)]
- kinetics (order) of hydrolysis in human plasma [1]: first-order kinetics
- half-life ([1]; plasma): 2.3 min

SMILES: NC(=O)[C@@H]1CCCN1C(=O)COC(=O)c1ccccc1
- log P (partition coefficient between octanol and water) [5]: 0.20
- half-life ([1]; 50% plasma): 2.3 min
- solubility [2]: 1500 µg/mL (≈ 5.43 mM)

SMILES: CCN(CC)C(=O)COC(=O)[C@@H](C)c1ccc2cc(OC)ccc2c1 [Example 35, 2-[(+)-6-METHOXY-α-METHYL-2-NAPHTHALENEACETYLOXY]-N,N-[…]]
- kinetics (order) of hydrolysis in human plasma [1]: first-order kinetics

SMILES: CCN(CC)C(=O)COC(=O)CCC(=O)c1ccc(-c2ccccc2)cc1 [Example 61]
- half-life ([1]; 80% plasma): 3.8 min
- half-life ([1]; plasma): 3.8 min

SMILES: Br.CCN(CC)C(=O)COC(=O)[C@@H](N)Cc1ccccc1 [Example 38]
- kinetics (order) of hydrolysis in human plasma [1]: first-order kinetics

SMILES: CCOC(=O)[C@@H](N)Cc1ccc(O)cc1 [L-Tyrosine ethyl ester, reference compound]
- half-life ([1]; 80% plasma): 59 min

SMILES: COc1ccc2cc([C@H](C)C(=O)OCC(=O)N(C)CC(N)=O)ccc2c1 [Example 53]
- half-life ([1]; plasma): 2.5 min

SMILES: O=C(OCC(=O)N(C1CCCCC1)C1CCCCC1)c1ccccc1 [Example 20]
- half-life ([1]; 50% plasma): 407 min

SMILES: CCCCN(CCCC)C(=O)COC(=O)c1ccccc1 [Example 14]
- S, solubility in water: 80 µg/mL

SMILES: COc1ccc2cc([C@H](C)C(=O)OCC(=O)N(CCO)CCO)ccc2c1 [Example 44, 2-[(+)-6-METHOXY-α-METHYL-2-NAPHTHALENEACETYLOXY]-N,N-(DI-β-HYDROXYETHYL)ACETAMIDE]
- absorption following oral administration [8]: efficiently absorbed
- conversion of prodrug to naproxen in vivo [8]: rapidly converted back to naproxen in vivo
- plasma concentration of intact naproxen prodrug ([8]; equivalent of 4.8 mg/kg naproxen): < 100 ng/mL
- solubility in 0.01M HCl relative to parent naproxen ([2]; 0.01M HCl, versus naproxen): more than 20 -fold

SMILES: CN(C)C(=O)COC(=O)CCC(=O)c1ccc(-c2ccccc2)cc1 [Example 60]
- half-life ([1]; plasma): 9.2 min

SMILES: COC(=O)Cc1ccc(C(=O)c2ccc(C)cc2)n1C [Tolmetin methyl ester, reference compound]
- half-life ([1]; 80% plasma): 1140 min

SMILES: CCN(CC)C(=O)COC(=O)c1ccccc1O [Example 80]
- half-life ([1]; 80% plasma): 0.08 min
- half-life ([1]; plasma): 0.08 min

SMILES: CCOC(=O)c1ccc(N)cc1 [4-Aminobenzoic acid ethyl ester, reference compound]
- half-life ([1]; 80% plasma): > 6000 min
